Ends that are not written are not given here.
Assay: In vitro saturation of lipid A binding site by peptide
Settings: stoichiometric saturation

Substance: Lys-Thr-Lys-Cys-Lys-Phe-Leu-Lys-Lys-Cys (KTKCKFLKKC; also: cyclic, ring type not given here) [SAEP2]
- affinity of binding to lipid A binding site: high affinity
